According to PubChem BioAssay AID1745844 (Carcinogenic Potency Database (CPDB), 2022):
Active and inactive are the calls of the source. The rule behind the calls is not given here.

System: rodent lifetime carcinogenesis bioassay, tumor incidence TD50
Assay: chronic cancer bioassays in animals – CPDB, compiled studies (AID 1745844)

## Nc1ccc(Cl)cc1
mouse, strain B6C3F1, females, by gavage, site: any site (literature study), lesion: several types, types named in the paper, dosed 103 weeks, study length 105 weeks
  carcinogen call: negative (inactive)
mouse, strain B6C3F1, females, by gavage, site: liver, lesion: hepatocellular adenoma + hepatocellular carcinoma + neoplastic nodule, dosed 103 weeks, study length 105 weeks
  TD50: 176 mg/kg/day
mouse, strain B6C3F1, males, by gavage, site: all sites + liver, lesion: hemangiosarcoma + hepatocellular adenoma + hepatocellular carcinoma, dosed 103 weeks, study length 105 weeks
  TD50: 56 mg/kg/day
mouse, strain B6C3F1, males, by gavage, site: all sites, lesion: hemangiosarcoma, dosed 103 weeks, study length 105 weeks
  TD50: 89.5 mg/kg/day
mouse, strain B6C3F1, males, by gavage, site: any site (literature study), lesion: several types, types named in the paper, dosed 103 weeks, study length 105 weeks
  TD50: 83.7 mg/kg/day
mouse, strain B6C3F1, males, by gavage, site: liver, lesion: hepatocellular adenoma + hepatocellular carcinoma + neoplastic nodule, dosed 103 weeks, study length 105 weeks
  TD50: 49.3 mg/kg/day
mouse, strain B6C3F1, males, by gavage, site: liver, lesion: hepatocellular adenoma + hepatocellular carcinoma, dosed 103 weeks, study length 105 weeks
  TD50: 49.3 mg/kg/day
mouse, strain B6C3F1, males, by gavage, site: liver, lesion: hepatocellular carcinoma, dosed 103 weeks, study length 105 weeks
  TD50: 33.8 mg/kg/day
mouse, strain B6C3F1, males, by gavage, site: lung, lesion: alveolar/bronchiolar adenoma + alveolar/bronchiolar carcinoma, dosed 103 weeks, study length 105 weeks
  TD50: 2780 mg/kg/day
rat, strain Fischer 344, females, by gavage, site: adrenal medulla, lesion: pheochromocytoma, benign, dosed 103 weeks, study length 105 weeks
  TD50: 105 mg/kg/day
rat, strain Fischer 344, females, by gavage, site: any site (literature study), lesion: several types, types named in the paper, dosed 103 weeks, study length 105 weeks
  TD50: 145 mg/kg/day
rat, strain Fischer 344, females, by gavage, site: spleen, lesion: fibrosarcoma + osteosarcoma, dosed 103 weeks, study length 105 weeks
  TD50: 232 mg/kg/day
rat, strain Fischer 344, males, by gavage, site: adrenal medulla, lesion: pheochromocytoma benign, bilateral + pheochromocytoma, benign, dosed 103 weeks, study length 105 weeks
  TD50: 14.8 mg/kg/day
rat, strain Fischer 344, males, by gavage, site: adrenal medulla, lesion: pheochromocytoma benign, bilateral + pheochromocytoma, malignant + pheochromocytoma, benign, dosed 103 weeks, study length 105 weeks
  TD50: 13.3 mg/kg/day
rat, strain Fischer 344, males, by gavage, site: any site (literature study), lesion: several types, types named in the paper, dosed 103 weeks, study length 105 weeks
  TD50: 20.8 mg/kg/day
rat, strain Fischer 344, males, by gavage, site: spleen, lesion: fibrosarcoma + fibroma, dosed 103 weeks, study length 105 weeks
  TD50: 16.9 mg/kg/day
rat, strain Fischer 344, males, by gavage, site: spleen, lesion: fibrosarcoma + hemangiosarcoma + osteosarcoma, dosed 103 weeks, study length 105 weeks
  TD50: 7.62 mg/kg/day
rat, strain Fischer 344, males, by gavage, site: spleen, lesion: fibrosarcoma + osteosarcoma, dosed 103 weeks, study length 105 weeks
  TD50: 7.9 mg/kg/day
rat, strain Fischer 344, males, by gavage, site: spleen, lesion: fibrosarcoma, dosed 103 weeks, study length 105 weeks
  TD50: 19 mg/kg/day
rat, strain Fischer 344, males, by gavage, site: spleen, lesion: hemangiosarcoma, dosed 103 weeks, study length 105 weeks
  TD50: 107 mg/kg/day
rat, strain Fischer 344, males, by gavage, site: spleen, lesion: osteosarcoma, dosed 103 weeks, study length 105 weeks
  TD50: 15.5 mg/kg/day

## Nc1ccc(N)c2c1C(=O)c1c(N)ccc(N)c1C2=O
mouse, strain B6C3F1, females, in feed, site: liver, lesion: hepatocellular adenoma, dosed 103 weeks, study length 106 weeks
  TD50: 150 mg/kg/day (inactive)
mouse, strain B6C3F1, females, in feed, site: lung, lesion: alveolar/bronchiolar adenoma + alveolar/bronchiolar carcinoma, dosed 103 weeks, study length 106 weeks
  TD50: 9310 mg/kg/day
mouse, strain B6C3F1, males, in feed, site: any site (literature study), lesion: several types, types named in the paper, dosed 104 weeks, study length 105 weeks
  TD50: 1290 mg/kg/day
mouse, strain B6C3F1, males, in feed, site: liver, lesion: hepatocellular adenoma + hepatocellular carcinoma + neoplastic nodule, dosed 104 weeks, study length 105 weeks
  TD50: 534 mg/kg/day
mouse, strain B6C3F1, males, in feed, site: liver, lesion: hepatocellular adenoma + hepatocellular carcinoma, dosed 104 weeks, study length 105 weeks
  TD50: 534 mg/kg/day
mouse, strain B6C3F1, males, in feed, site: lung, lesion: alveolar/bronchiolar adenoma + alveolar/bronchiolar carcinoma, dosed 104 weeks, study length 105 weeks
  TD50: 701 mg/kg/day
mouse, strain B6C3F1, males, in feed, site: lung, lesion: alveolar/bronchiolar adenoma, dosed 104 weeks, study length 105 weeks
  TD50: 925 mg/kg/day
rat, strain Fischer 344, females, in feed, site: any site (literature study), lesion: several types, types named in the paper, dosed 103 weeks, study length 104 weeks
  TD50: 130 mg/kg/day
rat, strain Fischer 344, females, in feed, site: pancreatic islets, lesion: islet-cell carcinoma, dosed 103 weeks, study length 104 weeks
  TD50: 291 mg/kg/day
rat, strain Fischer 344, females, in feed, site: pituitary gland + pancreatic islets, lesion: carcinoma, NOS + islet-cell carcinoma, dosed 103 weeks, study length 104 weeks
  TD50: 323 mg/kg/day
rat, strain Fischer 344, females, in feed, site: urinary bladder, lesion: leiomyoma, dosed 103 weeks, study length 104 weeks
  TD50: 1540 mg/kg/day
rat, strain Fischer 344, females, in feed, site: urinary bladder, lesion: leiomyosarcoma + leiomyoma + squamous-cell carcinoma + squamous-cell papilloma + transitional-cell carcinoma + transitional-cell p, dosed 103 weeks, study length 104 weeks
  TD50: 131 mg/kg/day
rat, strain Fischer 344, females, in feed, site: urinary bladder, lesion: leiomyosarcoma + leiomyoma, dosed 103 weeks, study length 104 weeks
  TD50: 250 mg/kg/day
rat, strain Fischer 344, females, in feed, site: urinary bladder, lesion: leiomyosarcoma, dosed 103 weeks, study length 104 weeks
  TD50: 294 mg/kg/day
rat, strain Fischer 344, females, in feed, site: urinary bladder, lesion: squamous-cell carcinoma + squamous-cell papilloma, dosed 103 weeks, study length 104 weeks
  TD50: 664 mg/kg/day
rat, strain Fischer 344, females, in feed, site: urinary bladder, lesion: squamous-cell carcinoma, dosed 103 weeks, study length 104 weeks
  TD50: 1580 mg/kg/day
rat, strain Fischer 344, females, in feed, site: urinary bladder, lesion: squamous-cell papilloma, dosed 103 weeks, study length 104 weeks
  TD50: 1020 mg/kg/day
rat, strain Fischer 344, females, in feed, site: urinary bladder, lesion: transitional-cell carcinoma + transitional-cell papilloma, dosed 103 weeks, study length 104 weeks
  TD50: 198 mg/kg/day
rat, strain Fischer 344, females, in feed, site: urinary bladder, lesion: transitional-cell carcinoma, dosed 103 weeks, study length 104 weeks
  TD50: 307 mg/kg/day
rat, strain Fischer 344, females, in feed, site: urinary bladder, lesion: transitional-cell papilloma, dosed 103 weeks, study length 104 weeks
  TD50: 317 mg/kg/day
rat, strain Fischer 344, males, in feed, site: any site (literature study), lesion: several types, types named in the paper, dosed 103 weeks, study length 104 weeks
  TD50: 39.3 mg/kg/day
rat, strain Fischer 344, males, in feed, site: pancreatic islets, lesion: islet-cell adenoma + islet-cell carcinoma, dosed 103 weeks, study length 104 weeks
  TD50: 414 mg/kg/day
rat, strain Fischer 344, males, in feed, site: pancreatic islets, lesion: islet-cell adenoma, dosed 103 weeks, study length 104 weeks
  TD50: 810 mg/kg/day
rat, strain Fischer 344, males, in feed, site: subcutaneous tissue, lesion: sarcoma, NOS, dosed 103 weeks, study length 104 weeks
  TD50: 1830 mg/kg/day
rat, strain Fischer 344, males, in feed, site: testis, lesion: interstitial-cell tumor, dosed 103 weeks, study length 104 weeks
  TD50: 100 mg/kg/day
rat, strain Fischer 344, males, in feed, site: thyroid gland, lesion: c-cell adenoma + c-cell carcinoma, dosed 103 weeks, study length 104 weeks
  TD50: 474 mg/kg/day
rat, strain Fischer 344, males, in feed, site: thyroid gland, lesion: c-cell adenoma, dosed 103 weeks, study length 104 weeks
  TD50: 529 mg/kg/day
rat, strain Fischer 344, males, in feed, site: urinary bladder, lesion: leiomyosarcoma + leiomyoma + squamous-cell carcinoma + squamous-cell papilloma + transitional-cell carcinoma + transitional-cell p, dosed 103 weeks, study length 104 weeks
  TD50: 89.3 mg/kg/day
rat, strain Fischer 344, males, in feed, site: urinary bladder, lesion: leiomyosarcoma + leiomyoma, dosed 103 weeks, study length 104 weeks
  TD50: 129 mg/kg/day
rat, strain Fischer 344, males, in feed, site: urinary bladder, lesion: leiomyosarcoma, dosed 103 weeks, study length 104 weeks
  TD50: 131 mg/kg/day
rat, strain Fischer 344, males, in feed, site: urinary bladder, lesion: squamous-cell carcinoma + squamous-cell papilloma, dosed 103 weeks, study length 104 weeks
  TD50: 803 mg/kg/day
rat, strain Fischer 344, males, in feed, site: urinary bladder, lesion: squamous-cell papilloma, dosed 103 weeks, study length 104 weeks
  TD50: 1260 mg/kg/day
rat, strain Fischer 344, males, in feed, site: urinary bladder, lesion: transitional-cell carcinoma + transitional-cell papilloma, dosed 103 weeks, study length 104 weeks
  TD50: 245 mg/kg/day
rat, strain Fischer 344, males, in feed, site: urinary bladder, lesion: transitional-cell carcinoma, dosed 103 weeks, study length 104 weeks
  TD50: 506 mg/kg/day
rat, strain Fischer 344, males, in feed, site: urinary bladder, lesion: transitional-cell papilloma, dosed 103 weeks, study length 104 weeks
  TD50: 370 mg/kg/day

## CC(=O)NNc1ccccc1
mouse, strain Swiss albino, females, in drinking water, site: blood vessels, lesion: angioma, dosed 111 weeks, study length 111 weeks
  TD50: 117 mg/kg/day
mouse, strain Swiss albino, females, in drinking water, site: blood vessels, lesion: angiosarcoma, dosed 111 weeks, study length 111 weeks
  TD50: 117 mg/kg/day
mouse, strain Swiss albino, females, in drinking water, site: blood vessels, lesion: several types, types named in the paper, dosed 111 weeks, study length 111 weeks
  TD50: 49 mg/kg/day
mouse, strain Swiss albino, females, in drinking water, site: liver, lesion: angioma, dosed 111 weeks, study length 111 weeks
  TD50: 105 mg/kg/day
mouse, strain Swiss albino, females, in drinking water, site: liver, lesion: angiosarcoma, dosed 111 weeks, study length 111 weeks
  TD50: 105 mg/kg/day
mouse, strain Swiss albino, females, in drinking water, site: liver, lesion: several types, types named in the paper, dosed 111 weeks, study length 111 weeks
  TD50: 44.8 mg/kg/day
mouse, strain Swiss albino, females, in drinking water, site: lung, lesion: adenoma, dosed 111 weeks, study length 111 weeks
  TD50: 413 mg/kg/day (inactive)
mouse, strain Swiss albino, males, in drinking water, site: blood vessels, lesion: angioma, dosed 106 weeks, study length 106 weeks
  TD50: 113 mg/kg/day
mouse, strain Swiss albino, males, in drinking water, site: blood vessels, lesion: angiosarcoma, dosed 106 weeks, study length 106 weeks
  TD50: 161 mg/kg/day
mouse, strain Swiss albino, males, in drinking water, site: blood vessels, lesion: several types, types named in the paper, dosed 106 weeks, study length 106 weeks
  TD50: 59.8 mg/kg/day
mouse, strain Swiss albino, males, in drinking water, site: liver, lesion: angioma, dosed 106 weeks, study length 106 weeks
  TD50: 128 mg/kg/day
mouse, strain Swiss albino, males, in drinking water, site: liver, lesion: angiosarcoma, dosed 106 weeks, study length 106 weeks
  TD50: 146 mg/kg/day
mouse, strain Swiss albino, males, in drinking water, site: liver, lesion: several types, types named in the paper, dosed 106 weeks, study length 106 weeks
  TD50: 62.1 mg/kg/day
mouse, strain Swiss albino, males, in drinking water, site: lung, lesion: adenocarcinoma, dosed 106 weeks, study length 106 weeks
  carcinogen call: negative (inactive)
mouse, strain Swiss albino, males, in drinking water, site: lung, lesion: adenoma, dosed 106 weeks, study length 106 weeks
  carcinogen call: negative (inactive)
